Data set [1] has as its system M. bovis (ATCC 35734). As to the kind of experiment: microbe, parasite or virus in culture. Type of data set: cell-based. The settings on record: Mycobacterium tuberculosis variant bovis, ATCC35734.
Data set [2] has as its system M. avium (ATCC 15769). As to the kind of experiment: microbe, parasite or virus in culture. The settings on record: Mycobacterium avium, ATCC15769; M. avium; read-out: MIC. Type of data set: cell-based.
Data set [3] concerns M. kansasii (ATCC 12478). As to the kind of experiment: microbe, parasite or virus in culture. Type of data set: cell-based. The settings on record: Mycobacterium kansasii, ATCC12478; M. kansasii; read-out: MIC.
Data set [4] concerns the target ClpC1/P1/P2 complex (Mycobacterium tuberculosis, UniProt P9WPC9). The class given is biochemical, M. tuberculosis.
The subject of data set [5] is M. tuberculosis strain H37Rv (ATCC 27294). As to the kind of experiment: microbe, parasite or virus in culture. The settings on record: Mycobacterium tuberculosis. The class given is cell-based, Mycobacterium tuberculosis.
The test system of data set [6] is M. tuberculosis 5 global clade representatives. As to the kind of experiment: microbe, parasite or virus in culture. The settings on record: Mycobacterium tuberculosis, read-out: MICs. Type of data set: cell-based.
In data set [7] the test system is M. marinum (ATCC 927). Kind of data set: microbe, parasite or virus in culture. The settings on record: Mycobacterium marinum, ATCC927; M. marinum; read-out: MIC. The class given is cell-based.
Data set [8] deals with M. abscessus (ATCC 19977). Kind of data set: microbe, parasite or virus in culture. Type of data set: cell-based, Mycobacterium abscessus. The settings on record: Mycobacteroides abscessus, ATCC19977, M. abscessus; read-out: MIC.
The test system of data set [9] is M. smegmatis (ATCC 700084). As to the kind of experiment: microbe, parasite or virus in culture. Type of data set: cell-based. The settings on record: Mycolicibacterium smegmatis, ATCC700084; M. smegmatis; read-out: MIC.
For data set [10] the following is noted: ECU, micelle formulation; cited from earlier work.
For data set [11], the target named is ClpC1 (Mycobacterium tuberculosis, UniProt P9WPC9). Type of data set: biochemical, M. tuberculosis.
Data set [12] relates to M. chelonae (ATCC 35752). Kind of data set: microbe, parasite or virus in culture. The settings on record: Mycobacteroides chelonae, ATCC35752; M. chelonae; read-out: MIC. Type of data set: cell-based, Mycobacterium chelonae.
The subject of data set [13] is M. tuberculosis. As to the kind of experiment: microbe, parasite or virus in culture. The class given is cell-based, Mycobacterium tuberculosis. The settings on record: Mycobacterium tuberculosis, read-out: MBC (minimum bactericidal concentration).
Data set [14] relates to Candida albicans (ATCC 10231). Kind of data set: MIC against nonmycobacteria (OD570). Type of data set: cell-based. The settings on record: ATCC10231, C. albicans. An excerpt:
(§1) Standard compounds used were ampicillin (AMP) and gentamicin (GEN). […] Amphotericin B (AmphB) and ketoconazole (KETO) were used as standard compounds.

Data set [15] deals with Staphylococcus aureus (ATCC 29213). Kind of data set: MIC against nonmycobacteria (OD570). The class given is cell-based. The settings on record: ATCC29213, S. aureus.
Description: as §1

Data set [16] has as its system Escherichia coli (ATCC 25922). Kind of data set: MIC against nonmycobacteria (OD570). The settings on record: ATCC25922, E. coli. The class given is cell-based.
Description: as §1

Data set [17] has as its system nonreplicating cultures of M. tuberculosis. Kind of data set: microbe, parasite or virus in culture. The class given is cell-based, Mycobacterium tuberculosis. The settings on record: Mycobacterium tuberculosis.
Data set [18] has as its system OVCAR 3 ovarian cancer cells. Kind of data set: Cytotoxicity against cancer cell lines (CellTiter 96). Type of data set: cell-based. The settings on record: Homo sapiens; OVCAR 3, paclitaxel column. How it is done: (§2) Human melanoma cancer cells (MDA-MB-435), human breast cancer cells (MDA-MB-231), and human ovarian cancer cells (OVCAR3) were purchased from the American Type Culture Collection (Manassas, VA). Each cell line was propagated at 37°C in 5% CO2 in RPMI 1640 medium supplemented with FBS (10%), penicillin (100 U/ml), and streptomycin (100 μg/ml). Cells in log phase were harvested by trypsinization, followed by two washing cycles to remove all traces of enzyme. A total of 5,000 cells were seeded per well of a 96-well clear, flat-bottom plate (Microtest 96; Falcon) and incubated overnight (37°C in 5% CO2). Samples dissolved in DMSO were then diluted and added to the respective wells. The cells were incubated in the presence of test substance for 72 h at 37°C and evaluated for viability with a commercial absorbance assay (CellTiter 96 AQueous One Solution cell proliferation assay; Promega Corp., Madison, WI) that measured viable cells. IC50 values are expressed in micromolar values relative to the solvent (DMSO) control.

Data set [19] deals with MDA-MB-231 breast cancer cells. The data set is described as above. The settings on record: Homo sapiens; MDA-MB-231, paclitaxel column. The class given is cell-based. As for the experimental part:
as §2

The test system of data set [20] is MDA-MB-435 melanoma cells. The data set is described as above. The class given is cell-based. The settings on record: Homo sapiens; MDA-MB-435, paclitaxel column. As for the experimental part: as §2

SMILES strings stand for the structures. pIC50: −log10 of the molar value. ≈ marks a conversion by molar mass, not a printed value. Numbered stars: 1 amine (or outer) side, 2 acyl side, 3 side chain; on linkers, the order of the positions; unused ones are H or OH. Bridge positions count the residues as written; N and C are the ends. Square brackets hold non-standard residues; d marks the D form. Peptide text beside a SMILES is read from it. * marks the point of attachment. ξ: configuration not given here. NMeTrp(4-OMe) = CN[CH](Cc1c[nH]c2cccc(OC)c12)C(=O)O; X1 = O=C(C(N[*:1])C(O)c1ccccc1)[*:2]; NMeI = CC[CH](C)[CH](NC)C(=O)O; ξNMe2Val = CC(C)C(C(=O)*)N(C)C; NMeT = CN[CH](C(=O)O)[CH](C)O; NMeL = CN[CH](CC(C)C)C(=O)O; NMeV = CN[CH](C(=O)O)C(C)C Where only a bound is given, the exact number is not on record here.

Here are results for 2 molecules from paper PMC6395927, “Rufomycin Targets ClpC1 Proteolysis in Mycobacterium tuberculosis and M. abscessus” (Antimicrobial Agents and Chemotherapy, 2019).

The term pIC50 denotes the IC50 on a negative log10 scale, so that one unit is a factor of ten. A higher pIC50 goes with a low IC50.

ClpC1, sequence (P9WPC9 whole entry): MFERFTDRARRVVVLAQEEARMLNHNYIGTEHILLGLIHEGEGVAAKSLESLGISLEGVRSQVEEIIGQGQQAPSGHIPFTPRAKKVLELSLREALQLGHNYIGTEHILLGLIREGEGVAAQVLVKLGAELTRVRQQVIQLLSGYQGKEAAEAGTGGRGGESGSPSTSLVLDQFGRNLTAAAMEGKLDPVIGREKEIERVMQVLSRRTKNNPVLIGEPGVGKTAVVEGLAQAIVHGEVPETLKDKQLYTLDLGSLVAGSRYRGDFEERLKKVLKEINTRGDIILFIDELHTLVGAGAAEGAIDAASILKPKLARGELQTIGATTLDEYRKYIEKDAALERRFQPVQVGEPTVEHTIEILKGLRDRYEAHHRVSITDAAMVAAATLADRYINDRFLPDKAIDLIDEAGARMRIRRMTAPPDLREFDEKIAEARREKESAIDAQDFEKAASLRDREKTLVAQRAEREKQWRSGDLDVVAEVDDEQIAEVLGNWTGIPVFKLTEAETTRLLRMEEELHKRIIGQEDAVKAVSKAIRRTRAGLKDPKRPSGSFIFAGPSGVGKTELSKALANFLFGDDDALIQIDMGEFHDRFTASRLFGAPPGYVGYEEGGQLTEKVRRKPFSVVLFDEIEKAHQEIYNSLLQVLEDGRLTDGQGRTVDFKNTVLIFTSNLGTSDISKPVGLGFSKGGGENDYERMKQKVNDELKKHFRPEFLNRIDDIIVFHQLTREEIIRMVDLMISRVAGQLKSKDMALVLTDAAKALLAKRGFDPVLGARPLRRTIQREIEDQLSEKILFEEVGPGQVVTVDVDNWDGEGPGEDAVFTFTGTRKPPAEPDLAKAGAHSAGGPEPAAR
ClpC1/P1/P2 complex, sequence (P9WPC9 whole entry, one chain of several): as the sequence (P9WPC9 whole entry) above

Turning to `CCC(C)C(C(=O)NC1C(=O)N(C)C(C(C)O)C(=O)NC(C(C)C)C(=O)N(C)C(CC(C)C)C(=O)NC(C(C)C)C(=O)N(C)C(C(C)C)C(=O)N(C)C(Cc2c[nH]c3cccc(OC)c23)C(=O)NC(C(C)C)C(=O)NC(C(O)c2ccccc2)C(=O)NC(C(C)C)C(=O)OC1C)N(C)C(=O)C(NC(=O)C(C(C)C)N(C)C)C(C)C` (centres unmarked) [ECU, ecumicin] (ξNMe2Val-V[NMeI]T[NMeT]V[NMeL]V[NMeV][NMeTrp(4-OMe)]V[X1]V; ester 3-C; configuration not given here), the MIC in data set [1] is below 0.2 µM; in [2], 0.35 µM (≈ 0.56 µg/mL); in data set [3], 4 µM (≈ 6.4 µg/mL); in data set [5], 0.16 µM (≈ 0.256 µg/mL); in data set [6] it was 0.13 to 0.38 µM (≈ 0.208 to 0.608 µg/mL); in data set [7], 0.95 µM (≈ 1.52 µg/mL). The MIC in [8] was above 63 µM; in data set [9] it was 1.7 µM (≈ 2.72 µg/mL); in [12], 0.97 µM (≈ 1.55 µg/mL); in data set [14], above 32 µM; in data set [15] it was above 32 µM; in data set [16] it was above 32 µM. In addition, the “effect on proteolytic activity of ClpC1/P1/P2 (FITC-casein degradation)” value in [4] is “inhibits ClpC1 proteolysis”. In addition, the terminal half-life in data set [10] is 3 h. Besides, in [11], the “effect on ClpC1 ATPase activity” value is reported as “stimulates the ATPase activity”. The MBC came to 0.34 µM (≈ 0.544 µg/mL) in data set [13] and 1.5 µM (≈ 2.4 µg/mL) in data set [17].

For the molecule `CC(=O)O[C@H]1C(=O)[C@@]2(C)[C@H]([C@H](OC(=O)c3ccccc3)[C@]3(O)C[C@H](OC(=O)[C@H](O)[C@@H](NC(=O)c4ccccc4)c4ccccc4)C(C)=C1C3(C)C)[C@]1(OC(C)=O)CO[C@@H]1C[C@@H]2O` [paclitaxel], the negative logarithm of the IC50 (pIC50) in data set [18] was 8.82; in data set [19] it was 6.77; in data set [20], 10.00.
